# Molecular target: T1, Brd4 bromodomain 1 (Homo sapiens, UniProt O60885)
# T1 construct: Illustrative results with the first bromodomain of Brd4; made in house; host or cells: E. coli BL21(DE3)
# Assay: Inhibition of tetra-acetylated histone H4 binding to BET bromodomain (TR-FRET)
# Details: His-tagged first bromodomain of Brd4 (200 nM), biotinylated tetra-acetylated histone H4 peptide, 2 hours at room temperature
# Description: Proteins were cloned and overexpressed with a N-terminal 6×His tag, then purified by nickel affinity followed by size exclusion chromatography. Briefly, E. coli BL21(DE3) cells were transformed with a recombinant expression vector encoding N-terminally Nickel affinity tagged bromodomains from Brd2, Brd3, Brd4. Cell cultures were incubated at 37° C. with shaking to the appropriate density and induced overnight with IPTG. The supernatant of lysed cells was loaded onto Ni-IDA column for purification. Eluted protein was pooled, concentrated and further purified by size exclusion chromatography. Fractions representing monomeric protein were pooled, concentrated, aliquoted, and frozen at −80° C. for use in subsequent experiments.
# Binding of tetra-acetylated histone H4 and BET bromodomains was confirmed by a Time Resolved Fluorescence Resonance Energy Transfer (TR-FRET) method. N-terminally His-tagged bromodomains (200 nM) and biotinylated tetra-acetylated histone H4 peptide (25-50 nM, Millipore) were incubated in the presence of Europium Cryptate-labeled streptavidin (Cisbio Cat. #610SAKLB) and XL665-labeled monoclonal anti-His antibody (Cisbio Cat. #61HISXLB) in a white 96 well microtiter plate (Greiner). For inhibition assays, serially diluted test compound was added to these reactions in a 0.2% final concentration of DMSO. Final buffer concentrations were 30 mM HEPES pH 7.4, 30 mM NaCl, 0.3 mM CHAPS, 20 mM phosphate pH 7.0, 320 mM KF, 0.08% BSA). After 2 hours incubation at room temperature, the fluorescence by FRET was measured at 665 and 620 nm by a SynergyH4 plate reader (Biotek). Illustrative results with the first bromodomain of Brd4. The binding inhibitory activity was shown by a decrease in 665 nm fluorescence relative to 620 nm. IC50 values were determined from a dose response curve.
row,FRET activity (<50 uM),Compound
1,Active,"O=c1cc(-c2ccc(O)cc2)oc2cccnc12 [Example 2, 2-(4-Hydroxy-phenyl)-pyrano[3,2-b]pyridin-4-one]"
2,Active,"O=c1cc(-c2ccc(O)c(Br)c2)oc2ncccc12 [Example 8, 2-(3-Bromo-4-hydroxyphenyl)-4H-pyrano[2,3-b]pyridin-4-one]"
3,Active,"O=c1cc(-c2ccc(O)cc2)oc2ncccc12 [Example 1, 2-(4-Hydroxy-phenyl)-pyrano[2,3-b]pyridin-4-one]"

# Test system: Caco-2 cells
# Assay: Caco-2 permeability (in vitro Caco-2 intestinal transport model)
# Type: in vitro ADME
# Details: not given
# From the text: The Caco-2 cell drug transport model is widely used for screening compounds in drug discovery to assess intestinal transport and predict absorption rates.
Apparent permeability (Papp) [×10⁻⁶ cm/s],% Transported Paap [×10⁻⁶ cm/s],Compound
3.34,,Oc1ccc(C=Cc2cc(O)cc(O)c2)cc1 [Resveratrol]
,10.1,CCCO [Propanol]
1.5,,"O=c1cc(-c2ccc(O)cc2)oc2cc(O)cc(O)c12 [5,7-dihydroxy-2-(4-hydroxyphenyl)-4H-chomen-4-one]"

# Test system: not given
# Assay: not given
# Details: not given
row,melting point [°C],Compound
1,300 to 302,"Cc1cc(-c2cc(=O)c3cccnc3o2)ccc1O [Example 5, 2-(4-Hydroxy-3-methylphenyl)-4H-pyrano[2,3-b]pyridine-4-one]"
2,259 to 262,"O=c1cc(-c2ccc(O)c(Cl)c2)oc2ncccc12 [Example 7, 2-(3-Chloro-4-hydroxyphenyl)-4H-pyrano[2,3-b]pyridine-4-one]"
3,253 to 255,"COc1cc(-c2cc(=O)c3cccnc3o2)ccc1O [Example 9, 2-(4-Hydroxy-3-methoxyphenyl)-4H-pyrano[2,3-b]pyridine-4-one]"
4,267 to 272,"O=c1cc(-c2ccc(O)c(Br)c2)oc2ncccc12 [Example 8, 2-(3-Bromo-4-hydroxyphenyl)-4H-pyrano[2,3-b]pyridin-4-one]"
5,267 to 268,"O=c1cc(-c2ccc(O)c(F)c2)oc2ncccc12 [Example 4, 2-(3-Fluoro-4-hydroxyphenyl)pyrano[2,3-b]pyridine-4-one]"
6,226 to 227,"O=c1cc(-c2ccc(O)c(CO)c2)oc2ncccc12 [Example 13, 2-(4-Hydroxy-3-(hydroxymethyl)phenyl)-4H-pyrano[2,3′-b]pyridine-4-one]"
7,269 to 270,"COc1ccc(-c2cc(=O)c3cccnc3o2)cc1 [Example 10, 2-(4-Methoxyphenyl)-4H-pyrano[2,3-b]pyridine-4-one]"

# The remaining lines, values behind:
row,Compound,melting point [°C]
1,"CC(=O)Oc1ccc(-c2cc(=O)c3cccnc3o2)cc1 [Example 12, 4-(4-Oxo-4H-pyrano[2,3-b]pyridine-2-yl)phenyl acetate]",167 to 169
2,"O=c1cc(-c2ccc(OCCO)cc2)oc2ncccc12 [Example 11, 2-(4-(2-Hydroxyethoxy)phenyl)-4H-pyrano[2,3-b]pyridine-4-one]",157 to 159
3,"O=c1cc(-c2ccc(O)cc2)oc2ccncc12 [Example 6, 2-(4-Hydroxyphenyl)-4H-pyrano[3,2-c]pyridin-4-one]",306 to 308
4,"O=c1cc(-c2ccc(O)cc2)oc2cnccc12 [Example 3, 2-(4-Hydroxyphenyl)-pyrano[2,3-c]pyridin-4-one]",294 to 296

# Test system: not given
# Assay: not given
# Details: value from S. P. Ng et al. (2005), footnote *; cited from earlier work
row,Compound,Solubility (PBS)
1,"O=c1cc(-c2ccc(O)cc2)oc2cc(O)cc(O)c12 [5,7-dihydroxy-2-(4-hydroxyphenyl)-4H-chomen-4-one]",3.37* μM

# Same assay, conditions: value from S. P. Ng et al. (2005), footnote *; listed as apigenin; cited from earlier work
row,Compound,Solubility (PBS) [µM]
1,"O=c1cc(-c2ccc(O)cc2)oc2cc(O)cc(O)c12 [5,7-dihydroxy-2-(4-hydroxyphenyl)-4H-chomen-4-one]",3.27
